Experiments:
[1] = Phase 1 multiple ascending dose study of grapiprant tablets: serum pharmacokinetics; assay type: in vivo, human; conditions: for Rac (Day 14/Day 1) / half-life / Cmax / AUC(0-t): mean; for increase of mean systemic exposure (AUC and Cmax) with dose: 14 days; for half-life / Cmax / AUC(0-t) / Tmax: human, oral, serum; for Tmax: median
Source text: Serum pharmacokinetic parameters can be computed using WinNonlin Version 3.2 (Pharsight®, Mountain View, Calif.) using standard non-compartmental methods. As used herein, the term “Cmax” refers to the maximum observed serum concentration of grapiprant estimated directly from concentration versus time data. As used herein, the term “Tmax” refers to the time of the first occurrence of Cmax. As used herein, the term “AUC(0-tlast)” refers to the area under the serum concentration vs. time curve from time 0 to Tlast (the time of the last quantifiable concentration estimated using the linear/log trapezoidal approximation). When data permitted, the terminal elimination rate constant (kel) was estimated using linear least-square regression analysis of the serum concentration-time data obtained during the terminal log-linear phase. As used herein, the term “AUC(0-inf)” refers to AUC(0-tlast) extrapolated to infinity, which is calculated as the sum of AUC(0-tlast) and Cest/kel, wherein Cest is the predicted plasma concentration obtained from the log linear regression analysis at the last quantifiable time point. As used herein, the term “t½” refers to terminal phase half-life calculated as ln(2)/kel. As used herein, the term “AUC(last-inf)” refers to the area under the serum concentration versus time curve from Tlast to infinity, which is estimated as Cpest/kel, wherein Cpest represented the estimated concentration at time Tlast based on the aforementioned regression analysis. As used herein, the term “AUCτ” refers to the area under the serum concentration versus time curve over the dosing interval. As used herein, the term “Rac” refers to the accumulation ratio of grapiprant in the serum, which is calculated as a measure of drug accumulation at steady state compared to Day 1. Rac for the 14 day oral administration described herein is calculated using the equation: Rac=(Day 14 AUCτ/Day 1 AUCτ). Rac for the 17 day oral administration described herein is calculated using the equation: Rac=(Day 17 AUCτ/Day 1 AUCτ). Day 17 is used as steady state in the elderly group of subjects, which is Day 14 of the multiple dosing period for these subjects.
As used herein, the terms “cohort 1”, “cohort 2”, and “cohort 3” refer to studies where grapiprant tablets are administered at dosage levels of 50 mg, 150 mg, and 300 mg, respectively, in healthy adult subjects with a 14 day oral administration regimen as follows: one dose in the morning in a fasting state on day 1; twice daily (BID, approximately every 12 hours) on days 2 through 13: one dose in a fasting state in the morning, and one dose in the evening on an empty stomach; and one dose in the morning in a fasting state on day 14.
As used herein, the term “cohort 5” and/or “cohort 6” refers to a study where grapiprant tablets are administered at a dosage level of 250 mg in elderly subjects with minor renal impairment with a 17 day oral administration regimen as follows: one dose in the morning in a fasting state on day 1; twice daily (BID, approximately every 12 hours) on days 4 through 16: one dose in a fasting state in the morning, and one dose in the evening on an empty stomach; and one dose in the morning in a fasting state on day 17.
Dosing and Duration: In Cohorts 1-3, study medication was administered once daily in the morning on Days 1 and 14, and twice daily (BID, approximately every 12 hours) on Days 2 through 13. In Cohorts 5 and 6, study medication was administered once daily in the morning on Day 1, BID on Days […] through 16, and once in the morning on Day 17. In all cohorts dosing was to be in the fasting state for the morning dose and on an “empty stomach” for the evening dose.
Pharmacokinetic Evaluations: Serial blood samples for serum PK evaluations of grapiprant began prior to dosing on Day 1 and continued until 48 hours following Day 14 dosing (Cohorts 1-3) or until 24 hours following Day 17 dosing (Cohorts 5 and 6). […]

[2] = Phase 1 multiple ascending dose study of grapiprant tablets: safety and tolerability
Source text: Study Design: This was a randomized, investigator-blind, subject-blind, sponsor-open, placebo controlled, sequential parallel-group, multiple ascending dose study of grapiprant tablets.
Safety Evaluations: Safety evaluations included clinical monitoring, adverse events (AEs), clinical laboratory tests including renal function tests, bone markers (serum bone-specific alkaline phosphatase and osteocalcin and urinary N-terminal telopeptide of type I collagen), vital signs (heart rate and blood pressure), and 12-lead ECGs.
Safety Analyses: Safety data are presented in tabular and/or graphical format and summarized descriptively.
Bone markers were analyzed as percentage change from baseline and the influence of potential outliers was assessed.

[3] = 250 mg BID, elderly subjects with mild renal impairment
[4] = 50 mg, 50 mg BID tablets, Day 1, healthy adults
[5] = 50 mg, 50 mg BID tablets, Day 14, healthy adults
[6] = 150 mg, 150 mg BID tablets, Day 1, healthy adults
[7] = 150 mg, 150 mg BID tablets, Day 14, healthy adults
[8] = 250 mg, 250 mg BID tablets, Day 1, elderly with mild renal impairment
[9] = 250 mg, 250 mg BID tablets, Day 17, elderly with mild renal impairment
[10] = 300 mg, 300 mg BID tablets, Day 1, healthy adults
[11] = 300 mg, 300 mg BID tablets, Day 14, healthy adults

CCc1nc2c(C)nc(C)cc2n1-c1ccc(CCNC(=O)NS(=O)(=O)c2ccc(C)cc2)cc1 [Grapiprant, N-((4-(2-ethyl-4,6-dimethyl-1H-imidazo[4,5-c]pyridin-1-yl)phenethyl)carbamoyl)-4-methylbenzenesulfonamide]
Rac (Day 14/Day 1) ([1]; 50 mg BID tablets, Day 14 AUCT/Day 1 AUCT, healthy adults): 1.13 | Rac (Day 14/Day 1) ([1]; 150 mg BID tablets, Day 14 AUCT/Day 1 AUCT, healthy adults): 1.20 | Rac (Day 14/Day 1) ([1]; 250 mg BID tablets, Day 17 AUCT/Day 1 AUCT, elderly with mild renal impairment): 1.54 | mean exposure compared with the 300 mg BID healthy adult group [1, 3]: slightly greater | Rac (Day 14/Day 1) ([1]; 300 mg BID tablets, Day 14 AUCT/Day 1 AUCT, healthy adults): 1.33 | increase of mean systemic exposure (AUC and Cmax) with dose ([1]; between 50 and 150 mg BID, tablets, healthy adults): approximately dose proportional | increase of mean exposures ([1]; dose increased 2-fold from 150 mg BID to 300 mg BID, healthy adults): approximately 3 fold | increase of mean systemic exposure (AUC and Cmax) with dose ([1]; dose increased from 150 mg BID to 300 mg BID, healthy adults): greater than dose proportional increase | half-life ([1]; 50 mg BID tablets, Day 14, healthy adults): 6.47 h | half-life ([1]; 150 mg BID tablets, Day 14, healthy adults): 9.71 h | half-life ([1]; 250 mg BID tablets, Day 1, elderly with mild renal impairment): 8.63 h | half-life ([1]; 300 mg BID tablets, Day 14, healthy adults): 8.76 h | Cmax ([1]; 50 mg, 50 mg BID tablets, Day 1 (n = 9), healthy adults): 578 ng/mL | AUC(0-t) [1, 4]: 3150 ng·h/mL | Tmax [1, 4]: 1.5 h | Cmax ([1]; 50 mg, 50 mg BID tablets, Day 14 (n = 8), healthy adults): 611 ng/mL | AUC(0-t) [1, 5]: 3370 ng·h/mL | Tmax [1, 5]: 1.25 h | Cmax ([1]; 150 mg, 150 mg BID tablets, Day 1 (n = 9), healthy adults): 2150 ng/mL | AUC(0-t) [1, 6]: 8970 ng·h/mL | Tmax [1, 6]: 1.5 h | Cmax ([1]; 150 mg, 150 mg BID tablets, Day 14 (n = 9), healthy adults): 2670 ng/mL | AUC(0-t) [1, 7]: 10300 ng·h/mL | Tmax [1, 7]: 1.5 h | Cmax ([1]; 250 mg, 250 mg BID tablets, Day 1 (n = 15), elderly with mild renal impairment): 10300 ng/mL | AUC(0-t) [1, 8]: 30100 ng·h/mL | Tmax [1, 8]: 1 h | Cmax ([1]; 250 mg, 250 mg BID tablets, Day 17 (n = 14), elderly with mild renal impairment): 12300 ng/mL | AUC(0-t) [1, 9]: 40200 ng·h/mL | Tmax [1, 9]: 1 h | Cmax ([1]; 300 mg, 300 mg BID tablets, Day 1 (n = 9), healthy adults): 8240 ng/mL | AUC(0-t) [1, 10]: 24900 ng·h/mL | Tmax [1, 10]: 1.5 h | Cmax ([1]; 300 mg, 300 mg BID tablets, Day 14 (n = 9), healthy adults): 10400 ng/mL | AUC(0-t) [1, 11]: 32300 ng·h/mL | Tmax [1, 11]: 1 h | AEs reported ([2]; 50 mg BID, healthy subjects): 7 AEs | subjects reporting AEs ([2]; 50 mg BID, healthy subjects (9 treated)): 4 subjects | AEs reported ([2]; 150 mg BID, healthy subjects): 23 AEs | subjects reporting AEs ([2]; 150 mg BID, healthy subjects (9 treated)): 7 subjects | AEs reported ([2]; 250 mg BID, elderly subjects): 44 AEs | subjects reporting AEs ([2]; 250 mg BID, elderly subjects (15 treated)): 14 subjects | tolerability [2, 3]: well tolerated | AEs reported ([2]; 300 mg BID, healthy subjects): 13 AEs | subjects reporting AEs ([2]; 300 mg BID, healthy subjects (9 treated)): 6 subjects | deaths ([2]; all cohorts): No deaths | severity of most treatment-emergent AEs ([2]; all cohorts): mild | vital signs and ECGs ([2]; all cohorts): no clinically significant mean changes from baseline | systolic blood pressure ([2]; elderly subjects with mild renal impairment, 250 mg BID, versus placebo group): small increase from baseline | laboratory safety tests, including renal function tests ([2]; grapiprant versus placebo): no clinically significant findings | systolic blood pressure ([2]; healthy subjects, doses up to 300 mg BID, triplicate BP monitoring): no difference between changes from baseline compared with placebo | tolerability ([2]; multiple-dose administration for 14 days, doses up to 300 mg BID, healthy adult subjects): well tolerated | withdrawal due to AE ([2]; one elderly subject, 250 mg BID): non-drug related AE of ventricular tachycardia | serious AEs considered related to the study medication ([2]; one healthy subject, 150 mg BID): decreased hemoglobin, decreased hematocrit, and gastrointestinal hemorrhage
